Reference: patent US9597302B1, “Combination of dofetilide and mexiletine for the prevention and treatment of atrial fibrillation” (Heart Rhythm Solutions, Inc., priority 2015, dated 2017)
Entries after “also recorded” stand apart in the source; their conditions may differ.

Legend:
[1] = system: arterially-perfused rabbit atrial wedge preparations; test: Induction of atrial fibrillation by programming stimulation in arterially-perfused rabbit atrial wedge preparations; conditions: for suppression of induction of atrial fibrillation: programming stimulation, concentrations of Table 1
Procedure: (§1) Rabbits (New Zealand White) of either sex, weighing 2.0-2.8 kg were injected with heparin (800 U/kg) via an ear vein and anesthetized by intramuscular injection of xylazine (5 mg/kg) and intravenous administration of ketamine HCl (30-35 mg/kg, i.v.). The chest was opened via a left thoracotomy, and the heart was excised and placed in a cardioplegic solution consisting of cold (4° C.) normal Tyrode's solution.
(§2) Surgical preparation of the rabbit right or left atrial wedge was essentially similar to that in Preclinical assessment of drug-induced proarrhythmias: role of the arterially perfused rabbit left ventricular wedge preparation,^18 herein incorporated by reference. Briefly, the atrial preparation was dissected from the rabbit heart and cannulated via a coronary artery branch, either from the right coronary artery (the right atrial wedge) or the left coronary artery (the left atrial wedge), and perfused with a cardioplegic solution. Similarly, the left ventricular wedge preparation was dissected from the rabbit heart and arterially cannulated via a branch of left coronary artery. The atrial or ventricular wedge preparation was then placed in a small tissue bath and arterially perfused with Tyrode's solution containing 4.0 mM K^+ buffered with 95% O2 and 5% CO2 at a temperature of 35.7±0.1° C. The preparations were paced at basic cycle lengths (BCL) of 300, 500, 1000 and 2000 ms.
Atrial fibrillation was induced by programming stimulation using single or double extrastimuli (S2 and S3). Basic cycle lengths (S1 and S1) of 1000 and 500 ms were used for induction of atrial fibrillation.

[2] = system: arterially-perfused rabbit left ventricular wedge preparations; test: Dofetilide-induced EAD, R-on-T extrasystoles and TdP in arterially-perfused rabbit left ventricular wedge preparations
Procedure: as §1, §2
Two extracellular silver/silver chloride electrodes were placed on the endocardial or epicardial surfaces to record bipolar atrial electrograms (EGM). A transmural ECG was recorded in the ventricular wedge preparation using two extracellular silver/silver chloride electrodes placed in the bath 0.5 to 1.5 cm from the epicardial and endocardial surfaces of the preparation (Epi: “+” pole). Transmembrane action potential was recorded from the endocardium or epicardium using the floating glass microelectrodes. Atrial action potential duration at 90% repolarization (APD90) was used for data analysis.
Early afterdepolarization (EAD), EAD-dependent R-on-T extrasystoles and torsade de pointes (TdP) were induced by dofetilide in the rabbit left ventricular wedges which were paced at a BCL of 2000 ms and perfused with Tyrode's solution containing 3 mM K^+, which is equivalent to hypokalemia in humans. Lower K^+ potentiated the effect of dofetilide to induced EAD, R-on-T and TdP. The K^+ concentration in Tyrode's solution remained the same when the effect of mexiletine on dofetilide-induced EAD, R-on-T and TdP was examined.

[3] = system: arterially perfused rabbit atrial wedge preparations; test: Atrial effective refractory period (ERP) and loss of excitation in arterially perfused rabbit atrial wedge preparations; conditions: for atrial preparations that lost excitation, drug alone: dofetilide (10 nM) or mexiletine (30 μM) used alone; for effect on atrial ERP, drug alone: each drug alone (FIG. 2)
Procedure: as §1, §2
Atrial effective refractory period (ERP) was measured by introducing an extrastimulus (S2) repeatedly every 10 pulses (S1) at two folds of the pacing threshold. […] In the preparations that lost excitation intermittently after drug interventions, the ERP was then considered to be equal to the S1-S1 interval.

[4] = literature refs 19-21; cited from earlier work
[5] = system: arterially perfused rabbit atrial wedge preparations; test: Atrial action potential duration (APD90) in arterially perfused rabbit atrial wedge preparations; conditions: dofetilide 3 nM and 10 nM; BCL 1000 ms or 500 ms (FIG. 1)
Procedure: as §1
Surgical preparation of the rabbit right or left atrial wedge was essentially similar to that in Preclinical assessment of drug-induced proarrhythmias: role of the arterially perfused rabbit left ventricular wedge preparation,^18 herein incorporated by reference. […]
Two extracellular silver/silver chloride electrodes were placed on the endocardial or epicardial surfaces to record bipolar atrial electrograms (EGM). A transmural ECG was recorded in the ventricular wedge preparation using two extracellular silver/silver chloride electrodes placed in the bath 0.5 to 1.5 cm from the epicardial and endocardial surfaces of the preparation (Epi: “+” pole). Transmembrane action potential was recorded from the endocardium or epicardium using the floating glass microelectrodes. […]

[6] = dofetilide 10 nM, BCL 2000 ms, 3 mM K+

Row | reversibility of the effect on dofetilide-induced EAD, R-on-T and TdP ([2]; after removal of mexiletine EAD, R-on-T reoccurred) | effect on EAD, R-on-T and TdP induced by 10 nM dofetilide ([2]; mexiletine 10 μM, low (3 mM) K+ (FIG. 6)) | Compound | Induced Atrial Fibrillation (incidence) ([1]; mexiletine 10 μM) | suppression of induction of atrial fibrillation [1] | atrial preparations that lost excitation, drug alone [3] | effect on atrial ERP, drug alone [3] | therapeutical plasma concentration in humans [4] | Induced Atrial Fibrillation (incidence) ([1]; dofetilide 3 nM) | effect on atrial fibrillation readily induced by single stimuli ([1]; one atrial wedge preparation, dofetilide alone 10 nM and 30 nM (FIG. 5)) | EAD (incidence) [2, 6] | R-on-T (incidence) [2, 6] | TdP (incidence) [2, 6] | effect on atrial APD90 [5]
1 | washable | effectively abolished | Cc1cccc(C)c1OCC(C)N (racemic) [mexiletine, (RS)-1-(2,6-dimethylphenoxy)propan-2-amine] | 4 of 4 preparations | not | none | mildly to moderately prolonged | ~10 µM |  |  |  |  |  | 
2 |  |  | CN(CCOc1ccc(NS(C)(=O)=O)cc1)CCc1ccc(NS(C)(=O)=O)cc1 [dofetilide, N-[4-(2-{[2-(4-methanesulfonamidophenoxy)ethyl](methyl)amino}ethyl)phenyl] methanesulfonamide] |  | partially suppressed | none | mildly to moderately prolonged | ~0.003 µM | 3 of 6 preparations | failed to suppress induction of atrial fibrillation and premature beats; also recorded: reduced only duration and incidences of atrial fibrillation | 7 of 7 | 5 of 7 | 1 of 7 | significantly increased
